Consider 5 compounds from patent publication US10435447B2, “Bacteriocidal peptides and uses thereof” (priority 2015, dated 2019).

For test [1], the system named is S. marcescens.
In test [2] the test system is E. coli. Kind of test: microbe, parasite or virus in culture. As to conditions: Escherichia coli.
Test [3] relates to K. pneumoniae. The test can be described thus: microbe, parasite or virus in culture. The conditions noted are these: Klebsiella pneumoniae.
The test system of test [4] is K. pneumoniae.
In test [5] the test system is E. cloacae. Kind of test: microbe, parasite or virus in culture. As to conditions: Enterobacter cloacae.
Test [6] has as its system P. aeruginosa. Kind of test: microbe, parasite or virus in culture. As to conditions: Pseudomonas aeruginosa.
Test [7] deals with S. marcescens. Kind of test: microbe, parasite or virus in culture. The conditions noted are these: Serratia marcescens.
Test [8] has as its system E. coli. As to conditions: for LVX MIC fold change (↓ decrease) / MEM MIC fold change (↓ decrease): with SMAP-29C* vs alone.
The subject of test [9] is E. cloacae.
Test [10] relates to P. aeruginosa.
Another test deals with TLR4. As to conditions: earlier finding; cited from earlier work.
Test [11] has as its system Toll-like receptor 3 (TLR3). The conditions noted are these: mouse cells and human cells; earlier finding; cited from earlier work.
The subject of test [12] is Toll-like receptor 3 (TLR3). Kind of test: IL-6 ELISA, TLR3 signaling with poly(I:C) in BEAS-2B cells. Type of test: cell-based, human. On the technique in general: An ELISA detects its analyte on a solid surface through an enzyme-linked reagent.
Description: Innate immune signaling by endogenous Toll-like receptor 3 (TLR3) in BEAS-2B cells in response to double-stranded RNA and various bacteriocidal peptides. IL-6 cytokine produced in response to signal transduction by TLR3 and the double-stranded RNA mimic, poly(I:C), was quantified using ELISA. Where present, the peptides were added to the media of BEAS-2B cells to a final concentration of 2 μM. […] All assays were performed in three independent samples and the mean and one standard error is shown above the bars.
The mark [13] stands for this setting: S. marcescens 4104, with SMAP-29C* vs alone.
[14] abbreviates: read-out: Kan + SMAP-29C* (Kan MIC).
Setting [15] is: K. pneumoniae OC 4110, with SMAP-29C* vs alone.
[16] abbreviates: E. cloacae OC 4080, with SMAP-29C* vs alone.
The mark [17] stands for this setting: P. aeruginosa PA01 oprD, with SMAP-29C* vs alone.
The mark [18] stands for this setting: read-out: MEM + SMAP-29C* (MEM MIC).

Converted amounts (≈) assume the structure as drawn. Like-named read-outs stand apart in the source and are kept apart here. Residues, ends and D or L forms follow the SMILES beside them.

For the compound `NC[C@H]1O[C@H](O[C@H]2[C@H](O)[C@@H](O[C@H]3O[C@H](CO)[C@@H](O)[C@H](N)[C@H]3O)[C@H](N)C[C@@H]2N)[C@H](O)[C@@H](O)[C@@H]1O` [Kan, kanamycin], the “Kan MIC Fold change (↓ decrease)” value in the test with S. marcescens [1] (setting [13]) and with K. pneumoniae [4] (setting [15]) was “↓2x fold” throughout. Besides, the MIC worked out at 2 µg/mL (≈ 4.13 µM) in the test on E. coli [2] (ATCC25922, read-out: Kan (MIC alone)); 16 µg/mL (≈ 33 µM) with E. coli [2] (read-out: Kan (MIC alone)); 8 µg/mL in the test on E. coli [2] (setting [14]); 4 µg/mL (≈ 8.26 µM) with K. pneumoniae [3] (read-out: Kan (MIC alone)); 2 µg/mL (≈ 4.13 µM) with E. cloacae [5] (read-out: Kan (MIC alone)); 64 µg/mL (≈ 132 µM) with P. aeruginosa [6] (read-out: Kan (MIC alone)). The MIC came to 32 µg/mL in the test on P. aeruginosa [6] (setting [14]) and 4 µg/mL (≈ 8.26 µM) in the test on S. marcescens [7] (read-out: Kan (MIC alone)).

Regarding `C[C@H]1COc2c(N3CCN(C)CC3)c(F)cc3c(=O)c(C(=O)O)cn1c23` [LVX, Levofloxacin], the “LVX + SMAP-29C* (LVX MIC)” value with S. marcescens [1] is less than 0.125 µg/mL; with E. cloacae [9] it was less than 0.004 µg/mL; with K. pneumoniae [4], 0.5 µg/mL; in the test on P. aeruginosa [10], less than 0.125 µg/mL. Besides, the “LVX MIC fold change (↓ decrease)” value is “↓>32x fold” in the test on S. marcescens [1] (setting [13]); 1 fold in the test on E. coli [8] (E. coli ATCC 25922); “↓4x fold” in the test with E. coli [8] (E. coli IU-342); “↓>8x fold” in the test with E. cloacae [9] (setting [16]); 1 fold with K. pneumoniae [4] (setting [15]); “↓>32x fold” in the test with P. aeruginosa [10] (setting [17]). Moreover, the MIC with E. coli [2] (ATCC25922, read-out: LVX (MIC alone)) turned out to be 0.016 µg/mL (≈ 0.0443 µM); in the test with E. coli [2] (read-out: LVX (MIC alone)) it was 8 µg/mL (≈ 22.1 µM); in the test with K. pneumoniae [3] (read-out: LVX (MIC alone)), 0.5 µg/mL (≈ 1.38 µM); in the test on E. cloacae [5] (read-out: LVX (MIC alone)), 0.032 µg/mL (≈ 0.0886 µM); in the test on P. aeruginosa [6] (read-out: LVX (MIC alone)), 4 µg/mL (≈ 11.1 µM); with S. marcescens [7] (read-out: LVX (MIC alone)) it was 4 µg/mL (≈ 11.1 µM).

As for `C[C@@H](O)[C@H]1C(=O)N2C(C(=O)O)=C(S[C@@H]3CN[C@H](C(=O)N(C)C)C3)[C@H](C)[C@H]12` [MEM, Meropenem], the “MEM MIC fold change (↓ decrease)” value is listed as “↓4x fold” in the test on S. marcescens [1] (setting [13]); “↓2x fold” in the test on E. coli [8] (E. coli ATCC 25922); “↓>4x fold” with E. coli [8] (E. coli IU-342); “↓4x fold” in the test on E. cloacae [9] (setting [16]); 1x fold with K. pneumoniae [4] (setting [15]); “↓2x fold” with P. aeruginosa [10] (setting [17]). Further, the MIC in the test on E. coli [2] (ATCC25922, read-out: MEM (MIC alone)) was 0.016 µg/mL (≈ 0.0417 µM); in the test with E. coli [2] (ATCC25922, read-out: MEM + SMAP-29C* (MEM MIC)) it was 0.008 µg/mL; with E. coli [2] (read-out: MEM (MIC alone)), 0.016 µg/mL (≈ 0.0417 µM); in the test on E. coli [2] (setting [18]), less than 0.004 µg/mL; in the test with K. pneumoniae [3] (read-out: MEM (MIC alone)), 0.052 µg/mL (≈ 0.136 µM); with K. pneumoniae [3] (setting [18]) it was 0.032 µg/mL. In addition, the MIC with E. cloacae [5] (read-out: MEM (MIC alone)) was 0.032 µg/mL (≈ 0.0834 µM); in the test on E. cloacae [5] (setting [18]) it was 0.008 µg/mL; in the test with P. aeruginosa [6] (read-out: MEM (MIC alone)), 1 µg/mL (≈ 2.61 µM); in the test with P. aeruginosa [6] (setting [18]) it was 0.5 µg/mL; in the test with S. marcescens [7] (read-out: MEM (MIC alone)), 0.032 µg/mL (≈ 0.0834 µM); with S. marcescens [7] (setting [18]), 0.008 µg/mL.

As for `CC[C@H](C)[C@H](NC(=O)[C@H](CCCCN)NC(=O)[C@H](CCCNC(=N)N)NC(=O)CNC(=O)[C@H](CC(C)C)NC(=O)[C@H](CCCNC(=N)N)NC(=O)[C@H](CCCNC(=N)N)NC(=O)[C@H](CC(C)C)NC(=O)CNC(=O)[C@@H](N)CCCNC(=N)N)C(=O)N[C@@H](C)C(=O)N[C@@H](Cc1c[nH]cn1)C(=O)NCC(=O)N[C@H](C(=O)N[C@@H](CCCCN)C(=O)N[C@@H](CCCCN)C(=O)N[C@@H](CS)C(=O)NCC(=O)N1CCC[C@H]1C(=O)N[C@H](C(=O)N[C@H](C(=O)N[C@@H](CC(C)C)C(=O)N[C@@H](CCCNC(=N)N)C(=O)N[C@H](C(=O)N[C@H](C(=O)N[C@@H](CCCNC(=N)N)C(=O)N[C@H](C(=O)N[C@@H](C)C(=O)NCC(=O)N[C@@H](CS)C(=O)O)[C@@H](C)CC)[C@@H](C)CC)[C@@H](C)CC)C(C)C)[C@@H](C)O)C(C)C` [SMAP-29C] (H-RGLRRLGRKIAHGVKKCGPTVLRIIRIAGC-OH; N-terminus and C-terminus assumed), the “MIC for ShpC + Kan*” value with S. marcescens [1] (S. marcescens 4104, with Kan* 2 μg/ml (½ MIC)) was 2 µg/mL; with E. coli [8] (E. coli ATCC25922, with Kan* 1 μg/ml (½ MIC)), less than 0.25 µg/mL; in the test with E. coli [8] (E. coli IU-342, with Kan* 8 μg/ml (½ MIC)) it was 2 µg/mL; with E. cloacae [9] (E. cloacae OC 4080, with Kan* 1 μg/ml (½ MIC)), 2 µg/mL; in the test on K. pneumoniae [4] (K. pneumoniae OC 4110, with Kan* 2 μg/ml (½ MIC)), 2 µg/mL; in the test on P. aeruginosa [10], 2 µg/mL. For the same compound, the “SMAP-29C MIC fold change (↓ decrease)” value in the test with S. marcescens [1] (S. marcescens 4104, with Kan* vs alone) was “↓>8x fold”; in the test with S. marcescens [1] (S. marcescens 4104, with LVX* vs alone), “↓>4x fold”; with S. marcescens [1] (S. marcescens 4104, with MEM* vs alone) it was “No change”; in the test with K. pneumoniae [4] (K. pneumoniae OC 4110, with Kan* vs alone), “↓4x fold”; in the test with K. pneumoniae [4] (K. pneumoniae OC 4110, with LVX* vs alone), 1x fold; with K. pneumoniae [4] (K. pneumoniae OC 4110, with MEM* vs alone) it was “↓2x fold”. Also, the MIC against E. faecalis was 32 µg/mL (≈ 9.7 µM).

Regarding “CRAMP: SEQ ID NO: 4, mouse ortholog of LL-37, GLLRKGGEKIGEKLKKIGQKIKNFFQKLVPQPEQ (listed as Mus musculus)”, in the test with TLR4, the “suppression of inflammatory response induced by lipopolysaccharide” value is given as “retained the ability to suppress inflammatory response”. In test [11], the “activation of signaling by TLR3” value is “unable to activate signaling by TLR3”. The “enhancement of TLR3 signaling / IL-6 production (in words)” value in test [12] was “unable to enhance IL-6 production”.
